In US11098010B2 (priority 2017, dated 2021) one finds EC50 data, which are given here for 30 compounds.

Where a name gives a salt, the structure may show the parent alone.

The test system of one assay is HBV rcDNA in HepDE19 cells. The assay can be described thus: HepDE19 assay with bDNA quantitation of HBV rcDNA. It counts as cell-based, hepatitis B virus (HBV). As to conditions: HepDE19 cells, inhibition of rcDNA formation, 7 day incubation, top concentration 25 μM; read-out: DE-19 bDNA EC50.
Take `CC(C)n1nccc1COC(=O)N[C@H]1CCc2c(C(=O)Nc3ccc(F)c(Cl)c3)ccc(F)c21` [Compound 106, O-(1-Isopropyl-1H-pyrazol-5-yl)methyl, N—(S)-(4-((3-chloro-4-fluorophenyl)carbamoyl)-7-fluoro-2,3-dihydro-1H-inden-1-yl) carbamate]: the EC50 came to 0.17 µM.

Staying with this assay, now noted: Hepatitis B virus, HepDE19, 168 h, HepDE19 cells, inhibition of rcDNA formation, 7 day incubation, top concentration 25 μM; read-out: DE-19 bDNA EC50.
As for `O=C(OCc1ccccn1)O[C@H]1CCc2c(C(=O)Nc3ccc(F)c(Cl)c3)ccc(F)c21` [Compound 90, (S)-4-((3-Chloro-4-fluorophenyl)carbamoyl)-7-fluoro-2,3-dihydro-1H-inden-1-yl (pyridin-2-ylmethyl) carbonate], the EC50 stood at 1.9 µM.

`O=C(N[C@H]1CCc2c(C(=O)Nc3ccc(F)c(Cl)c3)ccc(F)c21)OCc1cncs1` [Compound 91, O-Thiazol-5-ylmethyl, N—(S)-(4-((3-chloro-4-fluorophenyl)carbamoyl)-7-fluoro-2,3-dihydro-1H-inden-1-yl) carbamate]: the EC50 was 0.07 µM.

Regarding `O=C(N[C@H]1CCc2c(C(=O)Nc3ccc(F)c(Cl)c3)ccc(F)c21)OCc1nccs1` [Compound 92, O-Thiazol-2-ylmethyl, N—(S)-(4-((3-chloro-4-fluorophenyl)carbamoyl)-7-fluoro-2,3-dihydro-1H-inden-1-yl) carbamate], the EC50 came to 0.18 µM.

`O=C(N[C@H]1CCc2c(C(=O)Nc3ccc(F)c(Cl)c3)ccc(F)c21)OCc1cocn1` [Compound 93, O-Oxazol-4-ylmethyl, N—(S)-(4-((3-chloro-4-fluorophenyl)carbamoyl)-7-fluoro-2,3-dihydro-1H-inden-1-yl) carbamate]: the EC50 was 0.49 µM.

Turning to `O=C(N[C@H]1CCc2c(C(=O)Nc3ccc(F)c(Cl)c3)ccc(F)c21)OCc1ncco1` [Compound 94, O-Oxazol-2-ylmethyl, N—(S)-(4-((3-chloro-4-fluorophenyl)carbamoyl)-7-fluoro-2,3-dihydro-1H-inden-1-yl) carbamate], the EC50 worked out at 0.07 µM.

Regarding `O=C(N[C@H]1CCc2c(C(=O)Nc3ccc(F)c(Cl)c3)ccc(F)c21)OCc1cnco1` [Compound 95, O-Oxazol-5-ylmethyl, N—(S)-(4-((3-chloro-4-fluorophenyl)carbamoyl)-7-fluoro-2,3-dihydro-1H-inden-1-yl) carbamate], the EC50 turned out to be 0.06 µM.

With `Cn1ccc(C(=O)N[C@H]2CCc3c(C(=O)Nc4ccc(F)c(Cl)c4)ccc(F)c32)n1` [Compound 98, (S)—N-(4-((3-Chloro-4-fluorophenyl)carbamoyl)-7-fluoro-2,3-dihydro-1H-inden-1-yl)-1-methyl-1H-pyrazole-3-carboxamide], the EC50 amounted to 0.82 µM.

In the case of `Cn1nccc1C(=O)N[C@H]1CCc2c(C(=O)Nc3ccc(F)c(Cl)c3)ccc(F)c21` [Compound 100, (S)—N-(4-((3-Chloro-4-fluorophenyl)carbamoyl)-7-fluoro-2,3-dihydro-1H-inden-1-yl)-1-methyl-1H-pyrazole-5-carboxamide], the EC50 is 0.74 µM.

For the compound `Cn1ccc(S(=O)(=O)N[C@H]2CCc3c(C(=O)Nc4ccc(F)c(Cl)c4)ccc(F)c32)n1` [Compound 101, (S)—N-(3-Chloro-4-fluorophenyl)-7-fluoro-1-((1-methyl-1H-pyrazole)-3-sulfonamido)-2,3-dihydro-1H-indene-4-carboxamide], the EC50 stood at 0.72 µM.

`Cn1cnc(COC(=O)N[C@H]2CCc3c(C(=O)Nc4ccc(F)c(Cl)c4)ccc(F)c32)n1` [Compound 102, O-(1-Methyl-1H-1,2,4-triazol-3-yl)methyl, N—(S)-(4-((3-chloro-4-fluorophenyl)carbamoyl)-7-fluoro-2,3-dihydro-1H-inden-1-yl) carbamate]: the EC50 turned out to be 0.07 µM.

Consider `Cn1nccc1COC(=O)N[C@H]1CCc2c(C(=O)Nc3ccc(F)c(Cl)c3)ccc(F)c21` [Compound 103, O-(1-Methyl-1H-pyrazol-5-yl)methyl, N—(S)-(4-((3-chloro-4-fluorophenyl)carbamoyl)-7-fluoro-2,3-dihydro-1H-inden-1-yl) carbamate], for which the EC50 amounted to 0.1 µM.

For the compound `COCCOC(=O)N[C@H]1CCc2c(C(=O)Nc3ccc(F)c(Cl)c3)ccc(F)c21` [Compound 111, O-2-Methoxyethyl, N—(S)-(4-((3-chloro-4-fluorophenyl)carbamoyl)-7-fluoro-2,3-dihydro-1H-inden-1-yl) carbamate], the EC50 was determined as 0.15 µM.

As for `O=C(N[C@H]1CCc2c(C(=O)Nc3ccc(F)c(Cl)c3)ccc(F)c21)c1ccccn1` [Compound 115, (S)—N-(4-((3-Chloro-4-fluorophenyl)carbamoyl)-7-fluoro-2,3-dihydro-1H-inden-1-yl)picolinamide], the EC50 was found to be 2.2 µM.

On to `O=C(N[C@H]1CCc2c(C(=O)Nc3ccc(F)c(Cl)c3)ccc(F)c21)c1cncs1` [Compound 116, (S)—N-(4-((3-Chloro-4-fluorophenyl)carbamoyl)-7-fluoro-2,3-dihydro-1H-inden-1-yl)thiazole-5-carboxamide], for which the EC50 turned out to be 1.7 µM.

As for `CS(=O)(=O)N[C@H]1CCc2c(C(=O)Nc3ccc(F)c(Cl)c3)ccc(F)c21` [Compound 117, (S)—N-(3-chloro-4-fluorophenyl)-7-fluoro-1-(methylsulfonamido)-2,3-dihydro-1H-indene-4-carboxamide], the EC50 worked out at 0.52 µM.

On to `O=C(CN1CCOCC1)N[C@H]1CCc2c(C(=O)Nc3ccc(F)c(Cl)c3)ccc(F)c21` [Compound 118, (S)—N-(3-Chloro-4-fluorophenyl)-7-fluoro-1-(2-morpholinoacetamido)-2,3-dihydro-1H-indene-4-carboxamide], for which the EC50 is 2.2 µM.

As to `O=C(N[C@H]1CCc2c(C(=O)Nc3ccc(F)c(Cl)c3)ccc(F)c21)c1ccncc1` [Compound 120, (S)—N-(4-((3-Chloro-4-fluorophenyl)carbamoyl)-7-fluoro-2,3-dihydro-1H-inden-1-yl)isonicotinamide], the EC50 was 0.24 µM.

The assay is the same for the next values; noted with them: Hepatitis B virus, HepDE19, 168 h, read-out: DE-19 bDNA EC50 (μM), HepDE19 cells, inhibition of rcDNA formation, 7 day incubation, top concentration 25 μM.
Take `O=C(N[C@H]1CCc2c(C(=O)Nc3ccc(F)c(Cl)c3)ccc(F)c21)OCCn1ccnc1` [Compound 96, O-2-(1H-Imidazol-1-yl)ethyl, N—(S)-(4-((3-chloro-4-fluorophenyl)carbamoyl)-7-fluoro-2,3-dihydro-1H-inden-1-yl) carbamate Hydrochloride]: the EC50 was found to be 0.3 µM.

On to `O=C(Nc1ccc(F)c(Cl)c1)c1ccc(F)c2c1CC[C@@H]2Nc1ccccn1` [Compound 97, (S)—N-(3-Chloro-4-fluorophenyl)-7-fluoro-1-(pyridin-2-ylamino)-2,3-dihydro-1H-indene-4-carboxamide Hydrochloride], for which the EC50 is 0.22 µM.

Regarding `O=C(N[C@H]1CCc2c(C(=O)Nc3ccc(F)c(Cl)c3)ccc(F)c21)OCCOc1ccccc1` [Compound 99, O-2-Phenoxyethyl, N—(S)-(4-((3-chloro-4-fluorophenyl)carbamoyl)-7-fluoro-2,3-dihydro-1H-inden-1-yl) carbamate], the EC50 stood at 1.22 µM.

`NC(=O)c1ccnc(N[C@H]2CCc3c(C(=O)Nc4ccc(F)c(Cl)c4)ccc(F)c32)n1` [Compound 104, (S)-2-((4-((3-Chloro-4-fluorophenyl)carbamoyl)-7-fluoro-2,3-dihydro-1H-inden-1-yl)amino)pyrimidine-4-carboxamide]: the EC50 came to 0.16 µM.

`Cc1ncsc1CCOC(=O)N[C@H]1CCc2c(C(=O)Nc3ccc(F)c(Cl)c3)ccc(F)c21` [Compound 105, O-2-(4-Methylthiazol-5-yl)ethyl, N—(S)-(4-((3-chloro-4-fluorophenyl)carbamoyl)-7-fluoro-2,3-dihydro-1H-inden-1-yl) carbamate]: the EC50 came to 0.19 µM.

On to `COc1ccc(COC(=O)N[C@H]2CCc3c(C(=O)Nc4ccc(F)c(Cl)c4)ccc(F)c32)nc1` [Compound 107, O-(5-Methoxypyridin-2-yl)methyl, N—(S)-(4-((3-chloro-4-fluorophenyl)carbamoyl)-7-fluoro-2,3-dihydro-1H-inden-1-yl) carbamate Hydrochloride], for which the EC50 worked out at 1.2 µM.

On to `O=C(N[C@H]1CCc2c(C(=O)Nc3ccc(F)c(Cl)c3)ccc(F)c21)OC[C@@H]1CCCN1CC(F)(F)F` [Compound 108, O-[(2S)-1-(2,2,2-Trifluoroethyl)pyrrolidin-2-yl]methyl, N-[(1S)-4-[(3-chloro-4-fluorophenyl)carbamoyl]-7-fluoro-2,3-dihydro-1H-inden-1-yl]carbamate Hydrochloride], for which the EC50 came to 0.72 µM.

Consider `O=C(N[C@H]1CCc2c(C(=O)Nc3ccc(F)c(Cl)c3)ccc(F)c21)OCc1ccc(F)cn1` [Compound 109, O-(5-Fluoropyridin-2-yl)methyl, N—(S)-(4-((3-chloro-4-fluorophenyl)carbamoyl)-7-fluoro-2,3-dihydro-1H-inden-1-yl) carbamate], for which the EC50 is 0.27 µM.

Take `O=C(N[C@H]1CCc2c(C(=O)Nc3ccc(F)c(Cl)c3)ccc(F)c21)OCCc1cn[nH]c1` [Compound 110, O-2-(1H-Pyrazol-4-yl)ethyl, N—(S)-(4-((3-chloro-4-fluorophenyl)carbamoyl)-7-fluoro-2,3-dihydro-1H-inden-1-yl) carbamate]: the EC50 was found to be 0.2 µM.

For `O=C(N[C@H]1CCc2c(C(=O)Nc3ccc(F)c(Cl)c3)ccc(F)c21)OC[C@H]1CCCO1` [Compound 112, O—((R)-Tetrahydrofuran-2-yl)methyl, N—((S)-4-((3-chloro-4-fluorophenyl)carbamoyl)-7-fluoro-2,3-dihydro-1H-inden-1-yl) carbamate], the EC50 was 0.21 µM.

With `O=C(N[C@H]1CCc2c(C(=O)Nc3ccc(F)c(Cl)c3)ccc(F)c21)OC1CCOCC1` [Compound 113, O-Tetrahydro-2H-pyran-4-yl, N—(S)-(4-((3-chloro-4-fluorophenyl)carbamoyl)-7-fluoro-2,3-dihydro-1H-inden-1-yl) carbamate], the EC50 was determined as 0.31 µM.

As for `COCCCOC(=O)N[C@H]1CCc2c(C(=O)Nc3ccc(F)c(Cl)c3)ccc(F)c21` [Compound 114, O-3-Methoxypropyl, N—(S)-(4-((3-chloro-4-fluorophenyl)carbamoyl)-7-fluoro-2,3-dihydro-1H-inden-1-yl) carbamate], the EC50 stood at 0.47 µM.
